Data: patent publication US20230202989A1, “COMPOUNDS” (JANSSEN PHARMACEUTICA NV, priority 2020, published 2023)
Where two headings read alike, the source gives them in different places.

Experiments:
IL-1β = assay: PBMC assay: inhibition of IL-1β release after LPS stimulation (MSD); assay type: cell-based; settings: human PBMCs, 100 ng/ml LPS for 6 hrs, MSD, 96 well plates, read-out: IL1β IC50
Summary of the method: (§1)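 Cryopreserved human PBMCs (7.5×10^4/well) in RPMI/10% FBS were preincubated with serially diluted compound for 30 min at 37 °C, then stimulated with 100 ng/ml LPS for 6 h. Supernatant IL-1β and TNF measured by MSD. IC50 derived for IL-1β, EC50 for TNF.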

TNF = assay: PBMC assay: TNF cytokine levels after LPS stimulation (MSD); assay type: cell-based; settings: human PBMCs, 100 ng/ml LPS for 6 hrs
Summary of the method: as §1

SMILES | IC50 (IL-1β; Homo sapiens, PBMC, 6 h) [nM] | EC50 (TNF; Homo sapiens, PBMC, 6 h) [nM] | other results
CC(C)c1nn(CC(=O)N[C@H]2CCCN3CCC[C@@H]23)c(=O)c2ccc(C(F)(F)F)cc12 [Final Cpd X60] | 585 | > 20000 | –
CC[C@]1(O[Si](C)(C)C(C)(C)C)C[C@@H](NC(=O)Cn2nc(C(C)C)c3cc(Br)ccc3c2=O)C1 [X-1089, 2-(6-bromo-4-isopropyl-1-oxophthalazin-2(1H)-yl)-N-((1r,3s)-3-((tert-butyldimethylsilyl)oxy)-3-ethylcyclobutyl)acetamide] | – | – | IC50 (IL-1β; PBMC): > 20000 nM; EC50 (TNF; PBMC): > 20000 nM
CC(C)c1nn(CC(=O)N[C@H]2C[C@H](C(C)(C)O)C2)c(=O)c2ccc(C(F)(F)F)cc12 [Final Cpd X99] | 1160 | > 20000 | –
CC(C)c1nn(CC(=O)Nc2ccc3nncn3n2)c(=O)c2ccc(C(C)(F)F)cc12 [X-1003] | 40 | 9900 | –
CCN1C[C@@H](F)C[C@H](NC(=O)Cn2nc(C(C)C)c3cc(C(F)(F)F)ccc3c2=O)C1 (single isomer, unassigned) [Final Cpd X153] | 7630 | > 20000 | –
CC(C)c1nn(CC(=O)N[C@H]2CC[C@](C)(O)CC2)c(=O)c2ccc(C(F)(F)F)cc12 [Final Cpd X78] | 861 | > 20000 | –
CC(C)c1nn(CC(=O)Nc2ccc3cnn(C)c3n2)c(=O)c2ccc(Br)cc12 [X-1005] | 1470 | > 20000 | –
CC(C)c1nn(CC(=O)N[C@@H]2CC[C@@H]2O)c(=O)c2ccc(C(F)(F)F)cc12 [Final Cpd X115] | – | – | IC50 (IL-1β): 2020 nM; EC50 (TNF): > 20000 nM
CCN1CCC(NC(=O)Cn2nc(C(C)C)c3cc(C(F)(F)F)ccc3c2=O)CC1 [Final Cpd X143] | 4930 | > 20000 | –
CC(C)c1nn(CC(=O)Nc2ccc3ncn(C)c3c2)c(=O)c2ccc(C(F)(F)F)cc12 [Final Cpd X25] | 178 | > 20000 | –
Cn1nc(NC(=O)Cn2nc(C3CC3)c3cc(Cl)ccc3c2=O)ccc1=O [X-1072] | 1400 | > 20000 | –
O=C(Cn1nc(C(F)F)c2cc(Br)ccc2c1=O)Nc1ccc2nncn2n1 [X-1000] | 122 | > 20000 | –
CC(C)c1nn(CC(=O)Nc2ccc3nccn3c2)c(=O)c2ccc(C(C)(C)F)cc12 [X-1077] | 144 | 16500 | –
CC(C)c1nn(CC(=O)N[C@H]2C[C@@](C)(O)C2)c(=O)c2ccc(C(F)(F)F)c(F)c12 [Final Cpd X17] | 147 | > 20000 | –
CC(C)c1nn(CC(=O)Nc2ccn(C)c(=O)n2)c(=O)c2ccc(C(F)(F)F)cc12 [Final Cpd X112] | 1730 | > 20000 | –
COC(C)c1nn(CC(=O)Nc2ccncn2)c(=O)c2ccc(C(F)(F)F)cc12 (stereo not shown) [Final Cpd X111] | 1700 | 7930 | –
CC(C)c1nn(CC(=O)Nc2ccc3nccn3c2)c(=O)c2ccc(C(C)(F)F)cc12 [X-1067] | 175 | 13200 | –
CCN1C[C@H](F)C[C@@H](NC(=O)Cn2nc(C(C)C)c3cc(C(F)(F)F)ccc3c2=O)C1 [Final Cpd X37] | 316 | > 20000 | –
CC(c1nn(CC(=O)N[C@H]2C[C@@](C)(O)C2)c(=O)c2ccc(C(F)(F)F)cc12)C(F)(F)F (stereo partly shown) [Final Cpd X85] | 915 | > 20000 | –
CC(C)c1nn(CC(=O)Nc2ccc3nncn3c2)c(=O)c2ccc(OC(F)(F)F)cc12 [X-1040] | 1130 | 7190 | –
CC(C)c1nn(CC(=O)Nc2ncc3ncn(C)c3n2)c(=O)c2ccc(C(F)(F)F)cc12 [Final Cpd X181] | > 20000 | > 20000 | –
CCc1ccc2c(=O)n(CC(=O)Nc3ccc4nncn4c3)nc(C(C)C)c2c1 [X-1073] | 220 | > 20000 | –
CCN1CCC[C@@H](NC(=O)Cn2nc(C(C)C)c3cc(C(F)(F)F)ccc3c2=O)C1=O (single isomer, unassigned) [Final Cpd X166] | 17500 | > 20000 | –
Cc1nc2ccc(NC(=O)Cn3nc(C(C)C)c4cc(C(F)(F)F)ccc4c3=O)cn2n1 [Final Cpd X57] | 545 | > 20000 | –
CC(C)c1nn(CC(=O)Nc2ccc3nncn3n2)c(=O)c2ccc(Br)cc12 [X-1004] | 41 | > 20000 | –
CC(C)c1nn(CC(=O)N[C@H]2CC[C@H](O)CC2)c(=O)c2ccc(C(F)(F)F)cc12 [Final Cpd X44] | 374 | > 20000 | –
COCCn1nc(NC(=O)Cn2nc(C(C)C)c3cc(C(F)(F)F)ccc3c2=O)ccc1=O [Final Cpd X62] | 591 | > 20000 | –
COC(C)c1nn(CC(=O)N[C@H]2C[C@@](C)(O)C2)c(=O)c2ccc(C(F)(F)F)cc12 (stereo partly shown) [Final Cpd X107] | 1610 | > 20000 | –
CC(C)c1nn(CC(=O)NC2CC(C(F)(F)F)C2)c(=O)c2ccc(C(F)(F)F)cc12 (stereo not shown) [Final Cpd X77] | 830 | > 20000 | –
